Reference: article PMC11930087, “Mobility of four structural regions drives isoform-specific properties of photoenzyme LPOR in plants” (The Journal of Biological Chemistry, 2025)

Tests used:
AtPORA = biological target: T1, AtPORA (Arabidopsis thaliana, UniProt Q42536); test: […] K Pchlide fluorescence in darkness, F648/F635 ratio vs NADPH, hyperbolic fit; format: binding; details: lipid-free; 5 μM Pchlide, 15 μM LPOR, pH 7.1, room-temperature dark incubation; apparent parameter, exact value in supplement; read-out: KM^D
T1 construct: gene PORA
T1 sequence (Q42536 70-405): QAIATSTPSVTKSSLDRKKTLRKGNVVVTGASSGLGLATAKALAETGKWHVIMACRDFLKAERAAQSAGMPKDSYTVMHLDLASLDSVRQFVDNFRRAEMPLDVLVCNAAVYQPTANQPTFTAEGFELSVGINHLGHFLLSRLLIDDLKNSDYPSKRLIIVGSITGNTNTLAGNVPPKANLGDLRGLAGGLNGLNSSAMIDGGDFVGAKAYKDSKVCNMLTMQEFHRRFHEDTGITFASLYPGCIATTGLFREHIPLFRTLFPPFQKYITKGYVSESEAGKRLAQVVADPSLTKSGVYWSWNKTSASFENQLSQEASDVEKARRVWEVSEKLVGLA

PeaPOR = biological target: T2, PeaPOR (Lathyrus oleraceus, UniProt Q01289); test: as above; format: binding; details: lipid-free; 5 μM Pchlide, 15 μM LPOR, pH 7.1, room-temperature dark incubation; apparent parameter, exact value in supplement; read-out: KM^D
T2 construct: gene 3PCR; transit peptide removed; pET15b
T2 sequence (Q01289 65-399): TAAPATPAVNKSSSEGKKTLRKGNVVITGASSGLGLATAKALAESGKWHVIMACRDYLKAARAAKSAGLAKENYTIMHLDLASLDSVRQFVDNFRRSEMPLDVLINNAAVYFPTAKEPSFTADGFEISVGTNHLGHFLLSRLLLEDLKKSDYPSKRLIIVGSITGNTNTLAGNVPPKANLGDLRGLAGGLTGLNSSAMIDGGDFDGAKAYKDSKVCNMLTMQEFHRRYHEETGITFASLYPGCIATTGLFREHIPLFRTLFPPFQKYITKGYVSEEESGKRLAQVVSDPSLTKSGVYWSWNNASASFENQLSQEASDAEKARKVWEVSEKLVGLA

PinPOR = biological target: T3, PinPOR (Pinus mugo, UniProt Q41202); test: as above; format: binding; details: lipid-free; 5 μM Pchlide, 15 μM LPOR, pH 7.1, room-temperature dark incubation; apparent parameter, exact value in supplement; read-out: KM^D
T3 construct: transit peptide removed; pET15b
T3 sequence (Q41202 67-400): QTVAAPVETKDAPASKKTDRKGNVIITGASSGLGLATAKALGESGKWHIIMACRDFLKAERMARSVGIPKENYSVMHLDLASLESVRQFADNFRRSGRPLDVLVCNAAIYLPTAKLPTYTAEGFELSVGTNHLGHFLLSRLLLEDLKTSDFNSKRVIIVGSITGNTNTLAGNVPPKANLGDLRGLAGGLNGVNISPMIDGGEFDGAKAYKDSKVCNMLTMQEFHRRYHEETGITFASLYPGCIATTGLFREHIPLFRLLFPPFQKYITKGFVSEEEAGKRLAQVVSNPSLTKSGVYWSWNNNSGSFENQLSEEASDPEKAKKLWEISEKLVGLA

HaPOR1 = biological target: T4, HaPOR1 (Helianthus annuus, UniProt A0A251T841); test: biochemical; details: 400 uM OPT lipids, 5 uM Pchlide, 15 uM LPOR
T4 construct: gene PORA; transit peptide removed; pET15b
T4 sequence (A0A251T841 64-398): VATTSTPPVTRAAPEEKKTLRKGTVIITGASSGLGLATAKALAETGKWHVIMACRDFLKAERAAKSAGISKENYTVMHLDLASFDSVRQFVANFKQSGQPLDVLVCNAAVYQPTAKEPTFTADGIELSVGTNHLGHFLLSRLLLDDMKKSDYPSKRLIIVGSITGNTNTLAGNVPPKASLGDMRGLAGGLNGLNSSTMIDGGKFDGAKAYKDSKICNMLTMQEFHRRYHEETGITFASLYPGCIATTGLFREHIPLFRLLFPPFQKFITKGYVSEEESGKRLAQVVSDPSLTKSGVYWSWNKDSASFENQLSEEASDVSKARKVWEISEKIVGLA
Protocol: (Figs. 3A, S2). […] The resulting plots resembled saturation curves, to which a hyperbolic function similar to the Michaelis–Menten equation could be fitted (Figs. 3B, S3, Materials and Methods). […] However, KM^L values were consistently lower than KM^D values. […] The addition of 400 μM OPT lipids lowered the KM^D constant for all isoforms, except for SlPOR1, SlPOR3, HaPOR1, HaPOR2, and PeaPOR, where the constant remained unchanged within error estimates. […] Shaded areas represent the SD between replicates. […] A fit of a modified Michaelis–Menten equation is shown, along with the graphical representation of KM^D (B) or KM^L (C). Spectra corresponding to the given F648/F635 values (B) or F Chlide/F Pchlide values (C) are shown on the right side of the plot. D, relationship between KM^D and KM^L for investigated isoforms. The overall distribution of data points is shown in gray. Error bars represent the uncertainty associated with the fitted constant KM^x. Closed symbols represent constants determined for samples not supplemented with lipids, while open symbols these determined in the presence of 400 μM OPT lipids. LPOR, light-dependent protochlorophyllide oxidoreductase; Pchlide, protochlorophyllide; Chlide, chlorophyllide.

Kd (AtPORA): > 100 µM
Kd (PeaPOR): < 10 µM
Kd (PinPOR): < 10 µM
apparent Michaelis constant KM^D (dark) (HaPOR1): 16.9 µM
Structure (SMILES): NC(=O)C1=CN([C@@H]2O[C@H](COP(=O)(O)OP(=O)(O)OC[C@H]3O[C@@H](n4cnc5c(N)ncnc54)[C@H](OP(=O)(O)O)[C@@H]3O)[C@@H](O)[C@H]2O)C=CC1 [NADPH]
